How the values were obtained:
[1] = system: mouse colorectal cancer cell line CT26; test: Experiment (1): model mice with abdominal metastasis of CT26, treated 9 times; type: in vivo
Procedure: Balb/c mice aged 6-8 weeks were raised. The mouse colorectal cancer cell line CT26 cultured to the logarithmic growth phase was prepared into a cell suspension, and mouse abdominal tumor was modeled by intraperitoneal injection. The number of cells injected into each mouse was 2×10^5, and the injection system was 100 μl for each mouse.
As described in Table 14, the mice that had been successfully modeled were divided into groups as follows: Normal group was not inoculated with tumor cell nor administrated with drugs; untreated group was intraperitoneally inoculated with CT26 cells instead of drugs; NS group was intraperitoneally inoculated with tumor cells and administrated with normal saline. After inoculation of the tumor, mice were intraperitoneally administrated on the 3rd day as follows: 15 μg of plasmid DNA and 75 μg of DOTAP for each mouse in the treatment group of plasmid DNA/DOTAP complex group; i.e. the mass ratio of plasmid DNA to DOTAP was 1:5. After that, they were administrated every three days for a total of 9 times.
The mice were administrated for 9 times in total and allowed to die naturally. The natural death dates of the mice in each experimental group were recorded, and the body weight and survival time of the mice in each experimental group were counted. The volume of ascites were counted, tumors were removed and weighed.

lysosomes of A549 cells = test: Lysosomal membrane permeability by CathepsinB intracellular localization; type: cell-based; settings: 3 h, immunofluorescence, confocal microscope
Procedure: (1) Inoculation of A549 cells in plates: round sterilized cell slides were placed at the bottom of a 6-well plate, inoculated A549 cells into the 6-well plate as per 1×10^5 cells/well, 2 ml of medium was added to each well, and incubated overnight.
(2) The medium (blank control group), pMVA-1 plasmid (control group PMVA), DOTAP cationic lipid (control group DOTAP) and pMVA-1/DOTAP complex (experimental group PMVA-DOTAP) were added to A549 cells cultured in the Step (1), and incubated at 37° C. for 3 h.
(3) A549 cells treated by different groups in Step (2) were washed twice with PBS, stabilized with ice methanol for 3 min, washed twice with PBS, and sealed with PBST containing 0.3% Triton of 5% FBS for 20 min.
(4) The cells in Step (3) were washed once with PBS, and the human CathepsinB antibody (made by Abcam) was diluted at a ratio of 1:300. Incubating at room temperature for 1 h, washing with PBS three times for 5 minutes each time, adding 1:1000 fluorescent secondary antibody, and incubating at room temperature for 1 h in the dark.
(5) The cells in Step (4) were washed with PBS for three times, the films were washed with ultrapure water to remove excess water, and sealed with anti-fluorescence quencher, then cured for 6 h. Fluorescent cells were observed under a confocal microscope and the images were saved.

CCCCCCCC/C=C\CCCCCCCC(=O)OCC(C[N+](C)(C)C)OC(=O)CCCCCCC/C=C\CCCCCCCC (stereo not shown) [DOTAP, 1,2-dioleoyl-3-trimethylammonium-propane]
average ascites volume ([1]; 15 μg pMVA-1 and/or 75 μg DOTAP ip every 3 days x9): 3.11 mL | day after inoculation of the tumor cells on which all mice of the group had died ([1]; 15 μg pMVA-1 and/or 75 μg DOTAP ip every 3 days x9, natural death): 39 days | average tumor weight ([1]; abdominal tumor weighed after the mice died): 8.23 g | distribution of Cathepsin B in A549 cells (lysosomes of A549 cells): distributed in dots

From patent US11738072B2, “Tumor vaccine and uses thereof” (WestVac Biopharma Co., Ltd., priority 2017, dated 2023)
